Experimental data published in US20230123334A1, “AMINO LIPID COMPOUND, PREPARATION METHOD THEREFOR, AND APPLICATION THEREOF” (SHENZHEN SHENXIN BIOTECHNOLOGY CO., LTD., priority 2020, published 2023).

Key:
Assay type in all cases: cell-based
MCF7 cells [1] = assay: Transfection of MCF7 cell line, DNA vectors; parameters: concentration or dose not given beside the values; details: plasmid DNA, GFP cells / total cells
Method: (§1) Cell line: MCF7 cells (ATCC HTB-22)
Medium DMEM supplemented with […] fetal bovine serum
(§2) Screening: cell transfection on 96-well plates
Detection (readout): percentage of the number of GFP fluorescent cells relative to the total number of cells (the total number of cells was determined using nucleus dye Hoechst). Lipofectamine2000 was used as the positive control, according to the manufacturer's instructions.
(§3) Method: the experimental method was basically the same with Example 4.

Hela cells [2] = assay: Transfection of Hela cell line, DNA vectors; details: 75 ng plasmid DNA, GFP cells / total cells
Method: 1. The compound (0.01 mmol) prepared in Example 1 was dissolved in 1 mL of anhydrous ethanol. After ultrasonically dissolved, 10 μL of the resultant amino lipid solution in ethanol was taken and mixed with 5 μL of DOPE solution in ethanol (0.01 m), and then to the obtained mixture was added 35 μL of 0.2M sodium acetate buffer (pH 5.6), and 50 μL of liposome solution was prepared by vortex at a constant rotating speed for 30 s. 4 μL was taken from the 50 μL liposome solution and added to 46 μL of 0.02M sodium acetate buffer (pH 5.6), and the final liposome solution was formed by vortex at a constant rotating speed for 30 s. 5 μL was taken from the final liposome solution and mixed with 75 ng plasmid DNA (psin-EGFP-IRES-Puro, Clontech) dissolved in 5 μL of 0.02 M sodium acetate buffer, and was allowed to stay at room temperature for 30 min to form a lipid/DNA transfection complex.
2. 10 μL of the lipid/DNA transfection complex was incubated at room temperature for 30 min, followed by addition of 90 μL of fresh resuspended cells (3-5×10^4 cells) and mixing with a pipette. 100 μL of cells+lipid/DNA complex was transferred to separate wells of a 96-well culture plate immediately, and placed in an incubator containing 5% CO2 at 37° C.
3. Hoechst33258 (Invitrogen) was added at a final concentration of 0.2 μg/mL to the cells 20 to 24 hours after initial cell transfection, and cultured in darkness at 37° C. for 15 min. Afterwards, the cells were washed once with a PBS solution, and then added with medium for culture for 20 to 24 h.
4. The cells were placed in a high-throughput confocal microscope (Molecular Devices ImageXpress), and four visual fields of the image of the cells were captured for each well, and images at three laser wavelengths were captured for each sample: bright field images of cells (FIG. 2(a) and FIG. 2(b)), Hoechst-staining images showing total nuclei (FIG. 2(c) and FIG. 2(d)) and GFP images showing success in transfection with the plasmid DNA and the expression of GFP (FIG. 2(e) and FIG. 2(f)). MetaXpress software was used to separately count the cells in the Hoechst-staining images and GFP images, and then the number of cells expressing GFP was divided by the total number of nuclei to give the absolute cell transfection efficiency. The absolute transfection efficiency was calculated as follows: […]
(§4) Cell line: Hela cells (ATCC 35241)
(§5) Medium: DMEM supplemented with 10% fetal bovine serum (Invitrogen)
as §2
(§6) Detection (readout): percentage of the number of GFP fluorescent cells relative to the total number of cells (the total number of cells was determined using nucleus dye Hoechst). Lipofectamine2000 (Invitrogen) was used as the positive control, according to the manufacturer's instructions.
as §3

Hela cells [3] = assay: Transfection of Hela cell line, mRNA vectors; details: 50 ng EGFP mRNA per well
Method: as §4, §5, §2
as §6, with “Hoechst). A commercially available liposome transfection reagent” for “Hoechst).”, “control group,” for “control,”
Method: the experimental method was basically the same with Example 4, and the mass of EGFP mRNA for transfection was 50 ng per well.

MCF7 cells [4] = assay: Transfection of MCF7 cell line, mRNA vectors; details: 50 ng EGFP mRNA per well
Method: as §1
Medium: DMEM supplemented with 10 fetal bovine serum (Invitrogen)
as §2
Detection (readout): percentage of the number of GFP fluorescent cells relative to the total number of cells (the total number of cells was determined using nucleus dye Hoechst). Lipofectamine2000 (Invitrogen) was used as the positive control.
Method: the experimental method was basically the same with Example 4, and the mass of EGFP mRNA (TriLink) for transfection was 50 ng per well.

HEK293 cells [5] = assay: Preliminary screening as DNA vectors, GFP transfection of HEK293 cells; details: HEK293 cells; lipid/DOPE liposome with 75 ng plasmid DNA (psin-EGFP-IRES-Puro); number of cells expressing GFP divided by total number of nuclei (Hoechst)
How it was run: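 HEK293 cells in DMEM/10% FBS transfected with 75 ng EGFP plasmid per well complexed with amino lipid/DOPE liposomes in pH 5.6 sodium acetate. Hoechst nuclear stain added 20-24 h post-transfection, then cells cultured another 20-24 h. Confocal imaging gives GFP-positive cells as % of total nuclei.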

HEK293 cells [6] = assay: Preliminary screening as mRNA vectors, EGFP mRNA transfection of HEK293 cells; details: HEK293 cells, 96-well plates, EGFP mRNA 50 ng per well; percentage of GFP fluorescent cells relative to total number of cells (Hoechst)
How it was run: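 HEK293 cells in DMEM plus 10% FBS transfected in 96-well format with 50 ng EGFP mRNA per well; Lipofectamine2000 served as positive control. Read-out is the percentage of GFP-fluorescent cells among total cells, counted by Hoechst nuclear stain.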

SMILES | Absolute DNA transfection efficiency in MCF7 cells (MCF7 cells [1]) [%] | Absolute DNA transfection efficiency in Hela cells (Hela cells [2]) [%] | Absolute mRNA transfection efficiency in Hela cells (Hela cells [3]) [%] | Absolute mRNA transfection efficiency in MCF7 cells (MCF7 cells [4]) [%] | Absolute DNA transfection efficiency in HEK293 cells (HEK293 cells [5]) [%] | Absolute mRNA transfection efficiency in HEK293 cells (HEK293 cells [6]) [%]
CCCCCCCCCCCSc1nc(NCCN2CCN(C)CC2)nc(SCCCCCCC)n1 [Compound S7S11D5] | 23.3 | 16.8 | 16.8 | 16.5 |  | 
CCCCCCCCCNc1nc(NCCCN(C)C)nc(SCCCCCCCCC)n1 [Compound S9N9D6] | 11.0 | 30.3 | 30.3 | 30.7 |  | 
CCCCCCCCCCCCSc1nc(NCCN2CCN(C)CC2)nc(SCCCCCCC)n1 [Compound S7S12D5] | 27.1 | 4.9 | 4.9 | 33.6 |  | 
CCCCCCCCCCCCCNc1nc(NCCCN(C)C)nc(SCCCCCCCC)n1 [Compound S8N13D6] | 32.2 | 27.6 | 27.6 | 33.4 |  | 
CCCCCCCCCCCSc1nc(NCCCN2CCOCC2)nc(SCCCCCCC)n1 [Compound S7S11D8] | 12.9 | 5.6 | 5.6 | 1.5 |  | 
CCCCCCCCCCCCCNc1nc(NCCN2CCN(C)CC2)nc(SCCCCCCCC)n1 [Compound S8N13D5] | 24.5 | 14.7 | 14.7 | 9.2 |  | 
CCCCCCCCCCCCCCSc1nc(NCCN(CC)CC)nc(SCCCCCCCCC)n1 [Compound S9S14D7] |  | 6.5 | 6.2 |  | 12.5 | 1.5
CCCCCCCCCCCCCCSc1nc(NCCN2CCOCC2)nc(SCCCCCCCCC)n1 [Compound S9S14D2] |  | 7.3 | 7.3 |  | 14.3 | 0.3
CCCCCCCCCCCCSc1nc(NCCCN2CCOCC2)nc(SCCCCCCC)n1 [Compound S7S12D8] | 11.5 | 5.4 | 5.4 | 24.0 |  | 
CCCCCCCCCCCCCNc1nc(NCC2CCN(C)CC2)nc(SCCCCCCCC)n1 [Compound S8N13D10] | 41.7 | 9.5 | 9.5 | 23.0 |  | 
CCCCCCCCCCCCNc1nc(NCCCN2CCOCC2)nc(SCCCCCCCC)n1 [Compound S8N12D8] | 2.1 | 8.4 | 8.4 | 0.3 |  | 
CCCCCCCCCCCSc1nc(NCC2CCN(C)CC2)nc(SCCCCCCC)n1 [Compound S7S11D10] | 33.8 | 19.7 | 19.7 | 22.2 |  | 
CCCCCCCCCCCCCCCSc1nc(NCCN(CC)CC)nc(SCCCCCCCCC)n1 [Compound S9S15D7] |  | 2.8 | 2.8 |  | 5.0 | 1.2
CCCCCCCCCCCCCCCSc1nc(NCCN2CCOCC2)nc(SCCCCCCCCC)n1 [Compound S9S15D2] |  | 5.9 | 5.9 |  | 10.6 | 0.0
CCCCCCCCCCCCCCSc1nc(NCCN(C)C)nc(SCCCCCCCCC)n1 [Compound S9S14D1] |  | 1.4 | 1.4 |  | 2.1 | 1.6
CCCCCCCCCCCCCCCSc1nc(NCCN(C)C)nc(SCCCCCCCCC)n1 [Compound S9S15D1] |  | 1.3 | 1.3 |  | 2.1 | 0.0
CCCCCCCCCCCCSc1nc(NCCN(C)C)nc(SCCCCCCCCC)n1 [Compound S9S12D1] |  | 7.9 | 7.9 |  | 14.6 | 0.8
CCCCCCCCCCCCCCCCSc1nc(NCCN2CCOCC2)nc(SCCCCCCCCC)n1 [Compound S9S16D2] |  | 0.7 | 0.7 |  | 1.5 | 0.0
CCCCCCCCCCCCCCCCSc1nc(NCCN(C)C)nc(SCCCCCCCCC)n1 [Compound S9S16D1] |  | 0.0 | 0.0 |  | 0.0 | 0.0
CCCCCCCCCCCCSc1nc(NCCN2CCOCC2)nc(SCCCCCCCCC)n1 [Compound S9S12D2] |  | 8.5 | 8.5 |  | 16.7 | 0.0
CCCCCCCCCCCCSc1nc(NCCN2CCCCC2)nc(SCCCCCCCCC)n1 [Compound S9S12D4] |  | 0.0 | 0.0 |  | 0.0 | 0.6
CCCCCCCCCCCCCCCSc1nc(NCCN2CCCCC2)nc(SCCCCCCCCC)n1 [Compound S9S15D4] |  | 5.8 | 5.8 |  | 11.8 | 2.1
CCCCCCCCCCCCSc1nc(NCCN(CC)CC)nc(SCCCCCCCCC)n1 [Compound S9S12D7] |  | 2.7 | 2.7 |  | 5.3 | 3.4
